From ChEMBL document CHEMBL5465560, “Selectivity Literature for EUbOPEN Chemogenomic Library” (2024)

How the values were obtained:
[1] = target: T1, Serine/threonine-protein kinase 3 (Homo sapiens) (UniProt Q13188); experiment: Selectivity interaction (KinomeScan (DiscoverX)) EUB0000607a STK3; conditions: at 10 µM
T1 sequence (whole entry): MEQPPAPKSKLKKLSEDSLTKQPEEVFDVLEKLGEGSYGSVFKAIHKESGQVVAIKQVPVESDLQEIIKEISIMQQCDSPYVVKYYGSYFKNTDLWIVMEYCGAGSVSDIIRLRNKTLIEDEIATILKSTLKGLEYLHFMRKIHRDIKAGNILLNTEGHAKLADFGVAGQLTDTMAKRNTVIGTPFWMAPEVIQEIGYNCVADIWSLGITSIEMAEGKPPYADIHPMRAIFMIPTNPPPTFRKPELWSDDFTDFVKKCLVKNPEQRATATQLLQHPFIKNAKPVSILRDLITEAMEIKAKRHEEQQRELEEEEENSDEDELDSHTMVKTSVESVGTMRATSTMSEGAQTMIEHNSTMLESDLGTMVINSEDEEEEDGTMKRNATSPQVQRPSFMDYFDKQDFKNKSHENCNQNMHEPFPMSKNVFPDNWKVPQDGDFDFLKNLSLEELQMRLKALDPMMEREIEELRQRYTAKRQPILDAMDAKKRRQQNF

[2] = target: Serine/threonine-protein kinase PLK3 (Homo sapiens, UniProt Q9H4B4); experiment: Selectivity interaction (Upstate Kinase Profiler service (Millipore)) EUB0000056c PLK3; conditions: at 1 µM
[3] = target: Androgen receptor (Homo sapiens) (UniProt P10275); experiment: Selectivity interaction (Panel of non-epigenetic targets (kinases, GPCRs, ion channels, and transporters, Eurofins) ) EUB0000271b AR; conditions: at 1 µM
[4] = target: T2, Casein kinase I isoform alpha-like (Homo sapiens) (UniProt Q8N752); experiment: Selectivity interaction (KinomeScan (DiscoverX)) EUB0000655a CSNK1A1L; conditions: at 10 µM
T2 sequence (whole entry): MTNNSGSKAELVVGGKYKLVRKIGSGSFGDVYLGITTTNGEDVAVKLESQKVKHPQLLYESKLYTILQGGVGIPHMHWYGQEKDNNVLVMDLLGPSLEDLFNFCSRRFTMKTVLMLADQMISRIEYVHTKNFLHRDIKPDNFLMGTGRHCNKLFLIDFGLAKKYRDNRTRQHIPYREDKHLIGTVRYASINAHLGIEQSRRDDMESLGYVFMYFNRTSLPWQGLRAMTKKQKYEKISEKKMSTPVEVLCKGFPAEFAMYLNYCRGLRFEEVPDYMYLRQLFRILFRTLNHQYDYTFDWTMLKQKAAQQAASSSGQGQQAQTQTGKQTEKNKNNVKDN

[5] = target: Myosin light chain kinase, smooth muscle (Homo sapiens, UniProt Q15746); experiment: Selectivity interaction (KinomeScan (DiscoverX)) EUB0000655a MYLK; conditions: at 10 µM
[6] = target: LIM domain kinase 2 (Homo sapiens) (UniProt P53671); experiment: Selectivity interaction (KinomeScan (DiscoverX)) EUB0001079a LIMK2; conditions: at 1 µM
[7] = target: Serine/threonine-protein kinase MARK1 (Homo sapiens) (UniProt Q9P0L2); experiment: Selectivity interaction (KinomeScan (DiscoverX)) EUB0001079a MARK1; conditions: at 1 µM
[8] = target: T3, Hormonally up-regulated neu tumor-associated kinase (Homo sapiens) (UniProt P57058); experiment: Selectivity interaction (KinomeScan (DiscoverX)) EUB0000092b HUNK; conditions: at 10 µM
T3 sequence (whole entry): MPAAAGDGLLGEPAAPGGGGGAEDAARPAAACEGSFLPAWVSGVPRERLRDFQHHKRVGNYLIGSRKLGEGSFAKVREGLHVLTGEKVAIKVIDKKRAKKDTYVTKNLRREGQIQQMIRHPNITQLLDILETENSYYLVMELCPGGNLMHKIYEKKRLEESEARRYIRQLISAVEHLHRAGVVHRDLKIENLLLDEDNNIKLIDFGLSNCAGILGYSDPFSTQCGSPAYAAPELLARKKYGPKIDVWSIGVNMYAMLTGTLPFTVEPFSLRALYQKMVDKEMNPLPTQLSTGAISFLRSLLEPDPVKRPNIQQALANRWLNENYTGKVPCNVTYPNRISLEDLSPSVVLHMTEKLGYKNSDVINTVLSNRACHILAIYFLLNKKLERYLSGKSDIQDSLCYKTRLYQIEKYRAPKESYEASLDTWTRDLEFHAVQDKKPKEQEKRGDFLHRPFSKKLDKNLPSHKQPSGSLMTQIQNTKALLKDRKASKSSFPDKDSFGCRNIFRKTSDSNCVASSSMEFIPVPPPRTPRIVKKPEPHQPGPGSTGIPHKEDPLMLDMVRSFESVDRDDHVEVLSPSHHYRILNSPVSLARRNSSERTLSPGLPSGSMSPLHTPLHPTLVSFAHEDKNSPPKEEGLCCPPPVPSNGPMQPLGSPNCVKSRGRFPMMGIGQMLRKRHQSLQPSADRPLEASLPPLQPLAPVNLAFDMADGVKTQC

[9] = target: Dual specificity protein kinase CLK4 (Homo sapiens, UniProt Q9HAZ1); experiment: Selectivity interaction (KinomeScan (DiscoverX)) EUB0001619a CLK4; conditions: at 1 µM
Dual specificity protein kinase CLK4, sequence (Q9HAZ1 whole entry, looked up): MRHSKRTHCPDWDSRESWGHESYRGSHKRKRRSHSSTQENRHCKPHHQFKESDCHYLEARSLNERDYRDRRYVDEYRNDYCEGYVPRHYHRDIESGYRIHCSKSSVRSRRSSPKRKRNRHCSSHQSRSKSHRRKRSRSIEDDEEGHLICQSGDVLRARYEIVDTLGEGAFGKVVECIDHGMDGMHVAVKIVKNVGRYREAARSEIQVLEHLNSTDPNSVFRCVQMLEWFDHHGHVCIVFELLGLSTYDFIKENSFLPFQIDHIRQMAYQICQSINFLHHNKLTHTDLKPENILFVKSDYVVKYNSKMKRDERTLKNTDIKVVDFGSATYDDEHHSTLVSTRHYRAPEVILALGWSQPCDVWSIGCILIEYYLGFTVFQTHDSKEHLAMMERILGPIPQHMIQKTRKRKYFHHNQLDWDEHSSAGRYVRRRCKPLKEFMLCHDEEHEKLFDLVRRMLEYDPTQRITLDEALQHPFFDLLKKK

LIM domain kinase 2 (Homo sapiens), sequence (P53671 whole entry, looked up, the tested form may be a part): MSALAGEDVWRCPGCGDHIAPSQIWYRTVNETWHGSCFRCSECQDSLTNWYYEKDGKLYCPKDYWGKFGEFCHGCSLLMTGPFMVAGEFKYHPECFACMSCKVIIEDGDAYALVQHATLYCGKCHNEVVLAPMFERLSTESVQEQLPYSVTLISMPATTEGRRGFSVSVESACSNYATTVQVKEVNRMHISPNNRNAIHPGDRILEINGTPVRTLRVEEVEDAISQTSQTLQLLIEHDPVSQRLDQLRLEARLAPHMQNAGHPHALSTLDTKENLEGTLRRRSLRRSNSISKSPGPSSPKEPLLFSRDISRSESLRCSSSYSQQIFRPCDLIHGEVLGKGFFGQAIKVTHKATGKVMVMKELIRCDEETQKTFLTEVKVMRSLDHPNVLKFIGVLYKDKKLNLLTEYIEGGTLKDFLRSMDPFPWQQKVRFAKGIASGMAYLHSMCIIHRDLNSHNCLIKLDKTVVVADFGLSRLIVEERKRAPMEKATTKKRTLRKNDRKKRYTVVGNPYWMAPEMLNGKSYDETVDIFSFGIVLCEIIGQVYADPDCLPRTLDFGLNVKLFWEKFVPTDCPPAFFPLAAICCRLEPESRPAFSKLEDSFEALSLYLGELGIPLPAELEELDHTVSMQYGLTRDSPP
Serine/threonine-protein kinase MARK1 (Homo sapiens), sequence (Q9P0L2 whole entry, looked up): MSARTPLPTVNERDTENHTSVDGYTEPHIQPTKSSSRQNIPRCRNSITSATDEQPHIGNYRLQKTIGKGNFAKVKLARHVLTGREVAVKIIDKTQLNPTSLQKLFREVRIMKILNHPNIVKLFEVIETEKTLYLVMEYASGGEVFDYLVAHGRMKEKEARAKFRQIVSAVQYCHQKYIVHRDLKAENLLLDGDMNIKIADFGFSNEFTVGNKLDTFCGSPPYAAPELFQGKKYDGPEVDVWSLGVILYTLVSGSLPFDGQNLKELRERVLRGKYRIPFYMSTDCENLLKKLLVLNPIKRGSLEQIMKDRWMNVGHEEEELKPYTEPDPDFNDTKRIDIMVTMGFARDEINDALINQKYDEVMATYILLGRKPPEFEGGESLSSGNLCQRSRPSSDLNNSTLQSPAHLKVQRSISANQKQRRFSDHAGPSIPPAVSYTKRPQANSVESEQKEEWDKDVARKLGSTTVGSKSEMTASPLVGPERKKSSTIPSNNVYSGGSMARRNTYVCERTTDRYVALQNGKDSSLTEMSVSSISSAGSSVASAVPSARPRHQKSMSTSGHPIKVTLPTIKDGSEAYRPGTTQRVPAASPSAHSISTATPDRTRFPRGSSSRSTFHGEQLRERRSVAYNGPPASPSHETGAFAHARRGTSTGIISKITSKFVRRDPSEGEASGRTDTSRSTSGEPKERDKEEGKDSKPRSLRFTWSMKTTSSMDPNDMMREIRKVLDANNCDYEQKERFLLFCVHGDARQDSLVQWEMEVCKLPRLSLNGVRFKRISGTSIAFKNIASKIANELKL
Androgen receptor (Homo sapiens), sequence (P10275 whole entry, canonical isoform): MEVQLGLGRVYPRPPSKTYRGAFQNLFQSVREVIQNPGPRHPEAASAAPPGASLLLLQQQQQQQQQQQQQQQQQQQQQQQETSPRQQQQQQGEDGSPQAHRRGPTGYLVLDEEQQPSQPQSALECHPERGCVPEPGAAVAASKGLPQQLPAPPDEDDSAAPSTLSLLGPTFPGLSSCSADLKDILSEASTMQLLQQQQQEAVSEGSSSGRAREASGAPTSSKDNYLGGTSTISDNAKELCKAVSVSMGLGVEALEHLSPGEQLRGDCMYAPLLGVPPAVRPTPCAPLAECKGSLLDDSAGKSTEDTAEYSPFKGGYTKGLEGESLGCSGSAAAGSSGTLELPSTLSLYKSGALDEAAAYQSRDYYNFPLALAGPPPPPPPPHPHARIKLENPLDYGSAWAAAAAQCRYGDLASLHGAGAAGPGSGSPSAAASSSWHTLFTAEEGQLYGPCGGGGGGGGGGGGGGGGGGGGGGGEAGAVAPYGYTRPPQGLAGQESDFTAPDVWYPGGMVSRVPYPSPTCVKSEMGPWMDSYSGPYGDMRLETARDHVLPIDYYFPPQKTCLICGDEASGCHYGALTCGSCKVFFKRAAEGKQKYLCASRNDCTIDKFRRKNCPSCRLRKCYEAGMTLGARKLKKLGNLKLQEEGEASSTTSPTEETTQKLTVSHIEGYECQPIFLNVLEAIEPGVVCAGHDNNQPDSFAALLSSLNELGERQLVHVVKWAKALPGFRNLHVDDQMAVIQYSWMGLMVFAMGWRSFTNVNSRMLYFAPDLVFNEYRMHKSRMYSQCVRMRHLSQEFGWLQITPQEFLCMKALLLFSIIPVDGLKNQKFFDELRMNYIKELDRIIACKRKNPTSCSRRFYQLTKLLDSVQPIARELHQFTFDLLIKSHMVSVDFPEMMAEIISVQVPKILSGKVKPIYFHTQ
Serine/threonine-protein kinase PLK3, sequence (Q9H4B4 whole entry, looked up): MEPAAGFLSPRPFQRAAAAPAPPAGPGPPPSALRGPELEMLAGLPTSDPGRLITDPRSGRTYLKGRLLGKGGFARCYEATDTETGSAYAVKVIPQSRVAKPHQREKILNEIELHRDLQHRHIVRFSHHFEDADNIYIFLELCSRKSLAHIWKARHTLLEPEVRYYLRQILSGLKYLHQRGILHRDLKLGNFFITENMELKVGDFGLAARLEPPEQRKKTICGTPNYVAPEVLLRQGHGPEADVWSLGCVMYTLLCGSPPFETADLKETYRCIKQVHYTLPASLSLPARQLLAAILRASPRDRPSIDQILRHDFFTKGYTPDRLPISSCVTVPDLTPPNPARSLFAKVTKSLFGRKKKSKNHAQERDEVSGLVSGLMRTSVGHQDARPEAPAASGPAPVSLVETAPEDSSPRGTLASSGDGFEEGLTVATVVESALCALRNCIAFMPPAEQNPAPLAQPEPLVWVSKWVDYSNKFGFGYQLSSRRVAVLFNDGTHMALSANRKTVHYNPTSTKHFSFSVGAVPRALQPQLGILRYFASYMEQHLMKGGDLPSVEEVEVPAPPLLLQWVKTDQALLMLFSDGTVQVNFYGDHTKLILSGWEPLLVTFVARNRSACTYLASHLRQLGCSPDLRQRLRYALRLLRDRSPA

In the case of `CNC(=O)Nc1ccc(-c2nc(N3CC4CCC(C3)O4)c3cnn(C4CCC5(CC4)OCCO5)c3n2)cc1`, the % of control [1] is reported as 97%.
Compound `Cc1ccc(-c2ccc3c(ccc4sc5c(c43)NC[C@@H](C)NC5=O)n2)cn1` has a % of inhibition [2] of -2%.
Work on `Cc1cc(C)cc([C@@H]2c3cc(C)ccc3NC(=O)CN2C(=O)c2ccc(Br)s2)c1` yielded a % of inhibition [3] of -7%.
Work on `CN(C)CCOc1ccc(-c2nc(-c3ccncc3)c(-c3ccc4c(c3)CC/C4=N\O)[nH]2)cc1` yielded a % of control [4] of 88% and a % of control [5] of 51%.
`Nc1cnc(N2CCc3cc(S(=O)(=O)Nc4c(F)cc(Cl)cc4F)cc(N4CCCC4=O)c32)nc1` [TP-020n] showed a % of control [6] of 100% and a % of control [7] of 76%.
Work on `CCC(=O)N1CCN(c2ccc(-n3c(=O)ccc4cnc5ccc(-c6cnc7ccccc7c6)cc5c43)cc2C(F)(F)F)CC1` yielded a % of control [8] of 91%.
Compound `N#Cc1cccc(-c2c[nH]c3ncnc(N4CCOCC4)c23)c1` has a % of control [9] of 38%.
